Where no end group is shown, it is not given here.
Tests used:
HIV-1IIIB = experiment: HIV-1 antiviral assay in CEM-SS cells (MTS readout); details: HIV-1IIIB in CEM-SS cells
HCMV strain AD169 = experiment: HCMV plaque formation assay in MRC-5 cells; assay type: cell-based; details: for inhibition of HCMV plaque formation as compared to the virus control experiment: 10 micrograms per ml, MRC-5 cells, 7-10 days
Text: Ganciclovir was used as positive control.

A549 cells [1] = experiment: Apoptosis prevention assay (C2 ceramide, Annexin-5); assay type: cell-based, human; details: 10 micrograms per ml, 30 min pretreatment, then C2 ceramide
Protocol: Human A549 cells (carcinomic human alveolar basal epithelial cells) were utilized in the experiments employing the Annexin-5 apoptosis assay. […] A549 cells were pretreated for 30 min with test peptides—10 micrograms per ml—followed by the exposure to C2 ceramide.

A549 cells [2] = experiment: Apoptosis induction assay (Annexin-5); assay type: cell-based, human; details: 10 micrograms per ml; 24 hours
Protocol: Human A549 cells (carcinomic human alveolar basal epithelial cells) were utilized in the experiments employing the Annexin-5 apoptosis assay. […] Test peptides—10 micrograms per ml—were exposed for 24 hours to the A549 cells before they were analyzed for signs of apoptosis.

[3] = system: hepatitis B virus (HBV) ayw strain; experiment: HBV assay in HepG2-2.2.15 cells (secreted HBV DNA, TaqMan PCR); assay type: cell-based; details: 10 micrograms per ml, HepG2-2.2.15, six days
murine spleen cells = experiment: Th1/Th2 cytokine profiling assay (Ovalbumin-restimulated spleen cells); assay type: cell-based, Balb/c mice; details: 10 micrograms per ml, 72 hours; for production of IFN-gamma (decreased by %) / production of IL-4 (decreased by %) / production of IL-5 (decreased by %): number = decrease; for production of TNF-alpha (induced by %): number = increase
[4] = system: Primary Human endothelial cells (HUVEC); experiment: Endothelial cell migration assay; assay type: cell-based; details: 10 micrograms per ml; 22 hours
Protocol: Thereafter, designated concentration of testing peptides—10 micrograms per ml—was added in duplicate wells.

HUVEC = experiment: Endothelial tube formation assay; assay type: cell-based, human; details: 10 micrograms per ml; 20 hours
Text: Positive control was vehicle only. […] Raw data were expressed as average tubule lenghs in pixels±standard deviation.

| Compound | antiviral activity of positive control compounds (HIV-1IIIB) | antiviral activity of positive control compound (HCMV strain AD169; HCMV in MRC-5 cells) | induction of apoptosis on ceramide-induced apoptosis (A549 cells [1]; increase of apoptosis) | induction of apoptosis on human lung cells (A549 cells [2]) | inhibition of HBV replication as compared to the virus control infection [3] | production of IL-2 (change) (murine spleen cells) | production of IFN-gamma (decreased by %) (murine spleen cells) | production of IL-4 (decreased by %) (murine spleen cells) | production of IL-5 (decreased by %) (murine spleen cells) | production of TNF-alpha (induced by %) (murine spleen cells) | inhibition of HCMV plaque formation as compared to the virus control experiment (HCMV strain AD169) | inhibition of the migration of human endothelial cells [4] | inhibition of the tube formation of human endothelial cells (HUVEC) | prevention of apoptosis on ceramide-induced apoptosis (A549 cells [1]; protection) |
| --- | --- | --- | --- | --- | --- | --- | --- | --- | --- | --- | --- | --- | --- | --- |
| Cc1cn([C@H]2C[C@H](N=[N+]=[N-])[C@@H](CO)O2)c(=O)[nH]c1=O [AZT] | expected levels of antiviral activity |  |  |  |  |  |  |  |  |  |  |  |  |  |
| Nc1nc(O)c2ncn(COC(CO)CO)c2n1 [Ganciclovir, reference compound] |  | expected levels of antiviral activity |  |  |  |  |  |  |  |  |  |  |  |  |
| CC(C)(C)NC(=O)[C@@H]1CN(Cc2cccnc2)CCN1C[C@@H](O)C[C@@H](Cc1ccccc1)C(=O)N[C@H]1c2ccccc2C[C@H]1O [indinavir] | expected levels of antiviral activity |  |  |  |  |  |  |  |  |  |  |  |  |  |
| His-Pro-Leu-Gln-Lys-Thr-Tyr-OH (HPLQKTY-OH) [Peptide 1] |  |  | 9.7% | did not show any significant induction | 25.3% | did not significantly change | did not significantly change | 30.9% | did not significantly change | 31.3% | 0.3% | 4% | 6% |  |
| His-Ser-Asp-Gly-Ile-Phe-Thr-Asp-Ser-Tyr-Ser-Arg-Tyr-Arg-Lys-Gln-Met-Ala-Val-Lys-Lys-Tyr-Leu-Ala-Ala-Val-Leu-NH2 (HSDGIFTDSYSRYRKQMAVKKYLAAVL-NH2) [Peptide 2] |  |  |  | 3.6% | 39.1% | did not significantly change | 62.9% | did not significantly change | 43.3% | did not significantly change | did not inhibit | did not inhibit | did not inhibit | 13.7% |

— patent US20100184678A1, “USE OF A PEPTIDE AS A THERAPEUTIC AGENT” (priority 2007, published 2010)
